According to patent US20210369583A1, “COMPOSITIONS FOR PROVIDING SKIN CARE BENEFITS AND METHODS OF USE” (Danisco US Inc., priority 2018, published 2021):
Marks after values point to notes of the source that are not given here.

How the values were obtained:
Type in all cases: cell-based
[1] = test system: living human skin explants; experiment: Biochemical assay of MDA (lipid peroxidation) on living human skin explants exposed to pollutants
Description: Product A (Table 11) was diluted in water to obtain the following products at concentrations: product P1=A at 4%, product P2=A at 2% and product P3=A at 1%.
(§1) 59 human skin explants of an average diameter of 14 mm (±1 mm) were prepared on an abdoplasty coming from a person. The explants were kept in survival in BEM culture medium at 37° C. in a humid, 5%-CO2 atmosphere.
(§2) The tested products were topically applied on the basis of 2 μl per cm^2 and spread using a small spatula twice a day (morning and evening) on day 0, 1, 2, 3 and 4.
(§3) On D4, the explants of the batches ML and PML were placed on the 3D grid with 900 μl of HBSS and placed into the PolluBox® system.
(§4) 3 mL of the solution <<ML>> (supplemented with 150 μl/ml of NaCl 0.9%) were exposed by vaporization for 1 hour and half, as shown in the figure below.
The MDA assay was realized with an enhanced method of the TBARs (Thiobarbituric Acid Reactive Species) assay. The MDA was assayed in HBSS medium by addition of TBARs solution (thiobarbituric acid, hydrochloric acid and tricholoroacetic acid) and placed in a water bath (80° C. for 15 minutes). A lot of substances (like glucose) which are not related with lipoperoxidation, react with thiobarbituric acid (ThioBarbituric Acid Reagents=TBARS), so to enhance the specificity of the assay, the MDA was extracted by a liquid/liquid extraction with butanol. The MDA in butanol was measured in spectrofluorimetry (excitation: 515 nm, emission: 550 nm) using a Tecan Infinite M200 Pro microplate reader. Using this assay, MDA contained in the culture medium BEMc on […] was measured for the 4 explants per batch. The MDA concentration was expressed in pmol of MDA/ml of the medium. Concerned batches: all batches on day 5, 4 explants per batch.
The average of the blank batch TJ5 was calculated (154.0 nmol/L). Then, for each explant of MLJ5, this average value was subtracted from […]. That corresponds to calculating the delta (increase) of MDA induced by ML for each explant compared to the average of the batch without ML, it is ΔML.
These average deltas were then compared to the average delta of MDA induction without treatment (ΔML).

[2] = test system: Aryl hydrocarbon receptor (AhR); experiment: Immunostaining of AHR in human skin explants, image analysis
Description: as §1, §2, §3, §4
Aryl hydrocarbon receptor (AhR) is a transcriptional factor implicated in molecular response following the exposure of several compounds, including aromatic polycyclic hydrocarbon and ozone (Haarmann-Stemmann et al. 2012.JID 132:7-9; Afaq et al., 2009 JID 129:2396-2403). AhR is involved in activation of cytochrome family genes and CYP450 detoxification enzymes. In presence of pollution AhR is dissociated from the protein complex (HSP90), translocated to the nucleus, dimerized with ARNt, and binds to the DNA on target genes (Cytochrome family—activated in response to xenobiotics) (Ikuta et al., 2009. Biochemical pharmacology. 77:588-596). […] The immunostaining was performed using an automated slide processing system (Autostainer, Dako) and assessed by microscopical observation. Concerned batches: all the batches
The images analyses were performed on all the images (9 to 12 images) of each batch using the CellD storing software (Olympus Microscopy, Matrix Optics (M)SdnBhd, Taman Mayhang, Maylasia). For each batch of explants, the percentage of the region of interest covered by the staining (stained surface percentage) was determined by image analysis. […]
The ΔML for each treatment P was calculated using the same method to obtain the ΔPML, i.e. the variation of the Surf % induced by the pollutants exposure when treated with P. […]

[3] = test system: human living skin explant; experiment: TUNEL assay (UV-induced DNA damage) on human living skin explants; details: UV irradiated
Description: (§5) human skin explants of an average diameter of 12 mm (±1 mm) were prepared on an abdoplasty coming from a person). The explants were kept in survival in BEM culture medium at 37° C. in a humid, 5%-CO2 atmosphere.
(§6) On day 0 (D0), day 1, day 2 and day 3 (3 hours before irradiation), the tested products were applied topically on surface of skin explants at the rate of 2 mg/cm^2, twice a day for D1 and D2 and once on DO and D3. […] The medium was half renewed (1 ml per well) on day 2.
(§7) On D3, the culture media of all the batches was replaced by HBSS solution (Hank's Balanced Saline Solution; 1 ml per explant). The batches “UV” were irradiated by UVA+ UVB using a UV simulator Vibert Lourmat RMX 3W with a dose of 18 J/cm2 of UVA (4 MED, minimal erythemal dose) and 0.3 J/cm2 of UVB (2 MED). The unirradiated batches were kept in HBSS in the dark. At the end of the irradiation the explants were put back in 2 mL of BEM medium.
(§8) After fixation for 24 hours in buffered formalin, the samples were dehydrated and impregnated in paraffin using a Leica PEARL dehydration automat. The samples were embedded using a Leica EG 1160 embedding station. 5-μm-thick sections were made using a Leica RM 2125 Minot-type microtome, and the sections were mounted on Superfrost® histological glass slides. The frozen samples were cut into 7-μm-thick sections using a Leica CM 3050 cryostat. Sections were then mounted on Superfrost® plus silanized glass slides. The microscopical observations were realized using a Leica DMLB or Olympus BX43 microscope. Pictures were digitized with a numeric DP72 Olympus camera with CellD storing software.
DNA oxidization is a type of damage that can be promoted by reactive oxygen species (ROS), generated by UV exposure. […] The staining was assessed by microscopical observation. Batches analyzed were T, TUV, P1UV, P2UV, P3UV at day 4 also referred to as TJ4, TUVJ4, P1UVJ4, P2UVJ4, P3UVJ4 (T=Control batch non treated non irradiated; TJ4=T at Day 4 (D4); TUV: control batch non treated UV irradiated; TUVJ4=[…] at Day 4; P1J4: product A 4% non irradiated at D4; P2J4: product A 2% non irradiated at D4; P3J4: product A 1% non irradiated at D4; P1UV: product A 4% UV irradiated; P1UVJ4: product A 4% UV irradiated at D4 P2UV: product A 2% UV irradiated; P2UVJ4: product A 2% UV irradiated at D4; P3UV: product A 1% UV irradiated; P3UVJ4: product A 1% UV irradiated at D4

[4] = test system: human living skin explant; experiment: Immunostaining of carbonylated proteins (FTZ) on human living skin explants; details: UV irradiated
Description: as §5, §6, §7, §8
Protein carbonylation is a type of protein oxidation that can be promoted by reactive oxygen species (ROS), generated by UV exposure. FTZ marker assay was conducted by immunostaining in the living epidermis of human skin explant as follows: Carbonylated proteins were stained on frozen sections with the anti-carbonylated proteins probe (fluorescein-5-thiosemicarbazid-FTZ) (Lifetechnologies, Ref. F-121) diluted at 0.5 μM in MES-Na+ and incubated for 30 minutes in the dark and at room temperature. The staining was observed by epifluorescence and assessed by microscopical observations. Batches analyzed were T, TUV, P1UV, P2UV, P3UV at day 4 also referred to as TJ4, TUVJ4, P1UVJ4, P2UVJ4, P3UVJ4

[5] = test system: human living skin explant; experiment: Cell viability of human living skin explants (UV study); details: non irradiated; day 4
Description: as §5, §6, §7, §8

[6] = after pollutants exposure, day 5

## O=C(O)[C@@H]1CCCN1 [Combination P6, L-Proline]
[1]; MDA induction by pollutants, day 5
  MDA, variation ΔPML vs ΔML: −62%*
[1]; after pollutant exposure (ΔPML vs ΔML)
  reduction of the increase of MDA: 62%
[1]; [6]
  MDA, variation PML vs ML: −18%*
[2]; [6]
  AHR, variation PML vs ML: −15%**
[2]; without pollutants, D5
  decrease of AhR expression compared to batch TJ5: 63%
[2]; without pollutants, day 5
  AHR, variation P vs T: −63%*
[3]
  activity against UV-induced DNA damage: totally inhibits the increase of DNA damage
[4]
  effect on UV-induced carbonylated proteins: slightly inhibits the formation of carbonylated proteins
[5]
  Cell Viability, variation vs TJ4: ↔ (indicates no variation)
